Experimental data taken from publication PMC11190223, “Identification of sulfakinin receptor regulating feeding behavior and hemolymph trehalose homeostasis in the silkworm, Bombyx mori” (Scientific Reports, 2024).
Entries after “also recorded” stand apart in the source; their conditions may differ. Where no end group is shown, it is not given here. [ ]: non-standard residue; d: D form. sY = N[C@@H](Cc1ccc(OS(=O)(=O)O)cc1)C(=O)O

Experiments:
[1] = tested on: BNGR-A9; experiment: Fura-2 AM-based Ca^2+ mobilization assay, BNGR-A9; type: cell-based, Bombyx mori; details: for Effect of Gαq/PLC inhibitor on BmsSK-triggered Ca^2+ mobilization: FR900359 1 μM or U73122 5 μM
Source text: (§1) The entire coding region of BNGR-A9 (NM_001134272.1) was obtained by PCR and subsequently cloned into pEGFP-N1 and pCMV-Flag vectors using the primers listed in Table S1. The Flag-BNGR-A9 construct was generated for functional assays, including CRE-luciferase, calcium mobilization, and ERK phosphorylation assays, while BNGR-A9-EGFP was created for receptor visualization purposes. Additionally, for expression in the BmN cell system, the BNGR-A9 gene was inserted into the pIZT/V5-His vector. All constructs were validated by DNA sequencing.
(§2) HEK293 cells were cultured with Dulbecco’s Modified Eagle’s Medium (Gibco, NY, USA) supplied with 10% Fetal bovine serum (Gibco, NY, USA) in a 37 °C humidified incubator containing 5% CO2. BmN cells were maintained in TC 100 insect medium (AppliChem, Darmstadt, Germany) supplied with 10% Fetal bovine serum in a 28 °C incubator. Both HEK293 and BmN cells were transfected with X-tremeGENE (Roche, Mannheim, Germany) according to the manufacturer’s instruction.
To monitor the changes of intracellular calcium, Fura-2 AM (Dojindo, Kumamoto, Japan) was utilized as the calcium indicator, following the methodology outlined in a previous study. Briefly, HEK293 cells stably expressing Flag-BNGR-A9 were exposed to various concentrations of Bombyx mori neuropeptides and measured using a fluorescence spectrometer (Tecan Infinite 200 PRO). Calcium levels were determined by the ratio of fluorescence excitation at 340 nm to that at 380 nm. If necessary, cells were pre-treated with U73122, FR900359, or KT5720 for 30 min prior to the initiation of the experiment. For assays involving BmN cells expressing pIZT-BNGR-A9, the procedures were conducted at 28 °C, and HBSS was replaced with HBM (Hepes-Buffered Medium: 140 mM NaCl, 5 mM KCl, 1 mM MgCl2, 1.2 mM Na2HPO4, 5 mM NaHCO3, 10 mM glucose, and 20 mM HEPES–NaOH, CaCl2 (1 mM), pH 6.2).
(§3) Data analysis was conducted using GraphPad Prism (San Diego, CA), with results presented as mean ± SEM. Statistical significance was assessed through Student’s t-test or two-way ANOVA with multiple comparisons, with p values below 0.05 denoted as significant (*p < 0.05, **p < 0.01, ***p < 0.001). Dose–response curves were generated via non-linear curve fitting. Adobe Photoshop was used to process images, ensuring uniform brightness and contrast settings across all conditions. All images and data provided represent findings from a minimum of three independent experiments.

[2] = tested on: ERK phosphorylation in silkworm brains; experiment: ERK phosphorylation (western blot), silkworm larval brains ex vivo; set-up: species or system Bombyx mori; details: FR900359 1 μM, 30 min; 100 nM BmsSK; silkworm larval brains
Experimental: HEK293 cells with Flag-BNGR-A9 were exposed to 100 nM BmsSK for different durations and then lysed using RIPA buffer (Beyotime, China). For ex vivo assays, brains from 5th instar silkworm larvae were treated with BmsSK (100 nM) for 1, 2, or 8 h, either with a pre-treatment of Gαq inhibitor FR900359 for 30 min or without it. After treatment, samples were lysed, homogenized, and their protein concentrations were determined with a BCA protein kit (Takara, Japan). For western blot analysis, equal amounts of protein lysate were used. Protein expression was analyzed using specific primary antibodies: rabbit monoclonal antibodies for total and phosphorylated ERK from Cell Signaling Technology (MA, USA).

[3] = biological target: BNGR-A9; experiment: CRE-driven luciferase reporter assay, BNGR-A9; type: cell-based, Bombyx mori; details: for EC50 / Activation of BNGR-A9 (CRE-driven luciferase activity): 4 h, at least three independent experiments; for EC50: dose-response; for Activation of BNGR-A9 (CRE-driven luciferase activity): 1 μM peptide, with or without forskolin (5 μM)
Source text: as §1, §2
HEK293 and BmN cells were transfected with the different Bombyx receptors (Flag-BNGR-A9, -A24, -A32, or A33 for HEK293 cells, and pIZT-BNGR-A9, -A24, -A32, or A33 for BmN cells) along with the corresponding CRE-reporter plasmid. When cell confluence reached 90–95%, they were treated with various concentrations of Bombyx mori neuropeptides, with or without forskolin. Following a 4-h incubation period, cells were lysed, and luciferase activities were determined using a firefly luciferase kit (Beyotime, Shanghai, China).
as §3

[4] = tested on: BNGR-A9; experiment: IP3 ELISA in BNGR-A9-expressing HEK293 cells; type: cell-based, Bombyx mori; details: 1 μM, 1 h
Experimental: Figure 6 Bombyx sulfated-sulfakinin mediated activation of BNGR-A9 via Gαq signaling pathway. (A and B) Effects of Gαq inhibitor FR900359 (1 μM) on the CRE-driven luciferase activities in BNGR-A9 expressing HEK293 (A) and BmN (B) cells. BNGR-A9 stable transfected cells were pretreated with FR900359 (1 μM) for 30 min and challenged with 100 nM BmsSK for 4 h. (C) Accumulation of IP3 in HEK293 cells expressing BNGR-A9 in response to Bombyx neuropeptides was assessed. Cells were pre-treated with serum-free DMEM for 1 h, followed by stimulation with 1 μM of the indicated Bombyx neuropeptides for 1 h. The level of IP3 in the supernatant was then determined using the IP3 immunoassay detection kit. (D, E) Effects of Gαq/PLC inhibitors on Flag-BNGR-A9 mediated increase of intracellular Ca^2+ level. Flag-BNGR-A9 expressing HEK293 (D) and BmN (E) cells were pretreated with Gαq inhibitorFR900359 (1 μM), U73122 (5 μM) for 30 min, and incubated with Fura-2 AM for 30 min, followed by challenging with 100 nM BmsSK. (F, G) effects of protein kinase A (PKA) inhibitor KT5720 on BmsSK initiated Ca^2+ in Flag-BNGR-A9-expressing cells. […] After 30 min incubation with Fura-2 AM, the cells were treated with 100 nM BmsSK, and detected with a fluorescence spectrometer. […] Data were analyzed by using a Student’s t-test (*p < 0.05; **p < 0.01). […]

[5] = tested on: BNGR-A9; experiment: cAMP ELISA in BNGR-A9-expressing HEK293 cells; type: cell-based, Bombyx mori; details: 1 μM, 15 min, IBMX pretreatment (300 μM, 1 h)
Experimental: 1. Measurement of cAMP accumulation
Cells were seeded in 24-well plates and incubated overnight. Prior to treatment, cells
were pre-treated with the phosphodiesterase inhibitor IBMX (300 μM) for 1 hour.
Subsequently, cells were treated with different Bombyx neuropeptides for 15 minutes.
The reaction was terminated by removing the medium, followed by the addition of
ice-cold PBS and a single wash. Cell lysis was performed, and cAMP formation was
assessed using a competitive binding technique based on an enzyme-linked
immunosorbent assay (ELISA) (Parameter cAMP assay, R&D, Minneapolis, USA)
following the manufacturer's instructions. The results were expressed as the fold
change in cAMP concentration compared to the control concentration in the
2. Determination of Glucose of hemolymph
Silkworm larvae were anesthetized by cooling on ice, after which hemolymph was
collected using a micropipette from an incision made at the abdominal leg.
Approximately 5 mg of phenylthiourea (to achieve a final concentration of 2.5% w/v)
was added to the hemolymph in a 1.5 ml Eppendorf tube to inhibit clotting.
Hemolymph samples from 10 insects were then centrifuged at 12,000 rpm for 10
minutes at 4 °C to sediment any particulates. The glucose concentration in the
hemolymph was determined using a glucose oxidase-peroxidase kit (Shanghai […]
by stimulation with 1μM BmnsSK or BmsSK for 15 min, and the cAMP level was determined […]

[6] = tested on: DSK-R1 (CCKLR-17D3); details: cited from earlier work
Source text: Insect SKs mediate their effects via G protein-coupled receptors (GPCRs) located on the cell surface membrane. The Drosophila SK receptor (DSK-R1, also known as CCKLR-17D3) emerged as the first cloned and characterized receptor for insect SKs, displaying high affinity for tyrosine-sulfated SK (sSK) and low affinity for nonsulfated SK (nsSK)[21]. Another receptor, CCKLR-17D1, identified in Drosophila, exclusively responds to sSKs, underscoring the critical role of the sulfated tyrosine residue in SKs for receptor interaction and activity. This specificity for sSKs was also observed in the b ...

[7] = biological target: T1, Flag-BNGR-A9 (Bombyx mori neuropeptide G protein-coupled receptor A9) expressed in HEK293 cells (Bombyx mori) (UniProt B3XXM2)
T1 sequence: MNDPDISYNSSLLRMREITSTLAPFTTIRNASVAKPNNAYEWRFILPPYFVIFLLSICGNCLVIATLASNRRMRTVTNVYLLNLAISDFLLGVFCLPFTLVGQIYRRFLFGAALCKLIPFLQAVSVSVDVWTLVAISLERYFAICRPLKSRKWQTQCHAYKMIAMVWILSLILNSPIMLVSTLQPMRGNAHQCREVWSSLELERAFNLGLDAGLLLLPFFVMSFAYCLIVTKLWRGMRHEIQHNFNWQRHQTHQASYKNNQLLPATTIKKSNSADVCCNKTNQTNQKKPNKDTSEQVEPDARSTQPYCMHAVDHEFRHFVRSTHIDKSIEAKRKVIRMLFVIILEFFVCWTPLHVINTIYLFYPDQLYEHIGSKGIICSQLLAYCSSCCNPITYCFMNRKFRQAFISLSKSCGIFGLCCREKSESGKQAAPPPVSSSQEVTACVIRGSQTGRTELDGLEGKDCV

[8] = biological target: T2, BNGR-A9 expressed in BmN cells (pIZT-BNGR-A9) (Bombyx mori) (UniProt B3XXM2)
T2 sequence: T1 sequence

[9] = 30 min pretreatment, 100 nM BmsSK, HEK293 and BmN cells
[10] = CRE-driven luciferase, HEK293 and BmN cells

Molecule: CCCCCCOC(=O)[C@]1(O)C[C@@H]2O[C@@]1(C)n1c3ccccc3c3c4c(c5c6ccccc6n2c5c31)C(=O)NC4 [KT5720, reference compound]
- Effect of PKA inhibitor on BmsSK-induced Ca^2+ response ([1]; KT5720 10 μM, 30 min pretreatment, 100 nM BmsSK, HEK293 and BmN cells): did not affect

Molecule: COc1ccc2c(c1)CC[C@@H]1[C@@H]2CC[C@]2(C)[C@@H](NCCCCCCN3C(=O)C=CC3=O)CC[C@@H]12 [U73122, reference compound]
- Effect of Gαq/PLC inhibitor on BmsSK-triggered Ca^2+ mobilization [1, 9]: completely blocked

Molecule: FR900359 [reference compound]
- Effect of inhibitor on BmsSK-induced ERK phosphorylation [2]: inhibited
- Effect of Gαq/PLC inhibitor on BmsSK-triggered Ca^2+ mobilization [1, 9]: completely blocked; also recorded: completely inhibited

Molecule: GDDTFDD^8YGHLRF-NH2 [BmnsSK, Bombyx mori Non-sulfated-sulfakinin, synthetic; nonsulfated version of GDDTFDD^8YGHLRF-NH2]
- Ca^2+ response ([1]; 1 μM peptide, Fura-2 AM, BNGR-A9-expressing HEK293 and BmN cells, three independent experiments): triggered responses in BNGR-A9-expressing cells
- EC50 ([3]; BmN cells stably expressing BNGR-A9): 125 nM
- Activation efficacy relative to BmsSK [3, 10]: less than 30%
- Agonist type at BNGR-A9 [3, 10]: partial agonist
- Activation of BNGR-A9 (CRE-driven luciferase activity) ([3]; HEK293 and BmN cells): could activate BNGR-A9
- EC50 ([3]; HEK293 cells stably expressing BNGR-A9): 119 nM
- Intracellular IP3 level [4]: significant elevation
- Intracellular cAMP level [5]: remained unchanged

Molecule: neuropeptide F [reference compound]
- Activation of BNGR-A9 (CRE-driven luciferase activity) ([3]; HEK293 and BmN cells): did not significantly activate

Molecule: nsSK: nonsulfated SK, on Drosophila SK receptor (GDDTFDDYGHLRF-NH2)
- Affinity for DSK-R1 [6]: low affinity

Molecule: sSK: tyrosine-sulfated SK, on Drosophila SK receptor (GDDTFDD[sY]GHLRF-NH2; N-terminus assumed; SMILES CC(C)C[C@H](NC(=O)[C@H](Cc1c[nH]cn1)NC(=O)CNC(=O)[C@H](Cc1ccc(OS(=O)(=O)O)cc1)NC(=O)[C@H](CC(=O)O)NC(=O)[C@H](CC(=O)O)NC(=O)[C@H](Cc1ccccc1)NC(=O)[C@@H](NC(=O)[C@H](CC(=O)O)NC(=O)[C@H](CC(=O)O)NC(=O)CN)[C@@H](C)O)C(=O)N[C@@H](CCCNC(=N)N)C(=O)N[C@@H](Cc1ccccc1)C(N)=O)
- Affinity for DSK-R1 [6]: high affinity

B1: Bombyx mori Non-sulfated-sulfakinin (peptide)
peptide: GDDTFDDYGHLRF-NH2
- CRE-driven luciferase reporter, activation efficacy relative to BmsSK, HEK293 cells [7]: < 30 % of BmsSK
- CRE-driven luciferase reporter, dose-response, HEK293 cells stably expressing BNGR-A9 [7]: 119 nM
- CRE-driven luciferase reporter, activation efficacy relative to BmsSK, BmN cells [8]: < 30 % of BmsSK
- CRE-driven luciferase reporter, dose-response, BmN cells stably expressing BNGR-A9 [8]: 125 nM
